{"source": "patent US20210113540A1", "about": "“TREATMENT AGENT AND PHARMACEUTICAL COMPOSITION FOR GLIOMA” (NATIONAL UNIVERSITY CORPORATION HOKKAIDO UNIVERSITY, priority 2018, published 2021)", "key": {"[1]": {"test_system": "Glioma-initiating cell E16R", "assay": "Cell proliferation test (MTT) on GICR strain E16R", "type": "cell-based", "details": "Homo sapiens, 72 h, MTT after 3 days", "experimental": "(§1) GIC and GICR strain: Cell growth test was performed using E6, E6R, E16, and E16R (Stem Cells. 2016 August; 34(8): 2016-25.).\n(§2) Cell culture solutions were obtained by mixing a medium prepared by adding various compounds, bFGF (Peprotech, 100-18B) and EGF (Peprotech, 100-15) to DMEM/Ham's F-12 medium (SIGMA, D8062) and a medium prepared by adding FCS (Hyclone, SH30910.03) to DMEM medium (Nacalai tesque, 08458-45) to a concentration of 10% for use.\n(§3) Each compound adjusted to a predetermined concentration was dispensed into a 96-well plate (Falcon, 353072) at 80 μL/well, and E6 cells and E6R cells were seeded on the 96-well plate at 1000 cells/80 μL/well. After 3 days, 10 μL of an MTT reagent (DOJINDO, 341-01823) was added, the cells were incubated at 37° C. for 3 hours, the culture solution was removed, and 100 μL of DMSO was added. The absorbance at 570 nm was measured using Bio-Rad iMark (Bio-Rad, 168-1130JA). The growth inhibition rate at each test compound concentration was calculated by the following formula using the absorbance as an index of the viable cell count.\n(§4) The growth inhibition rate at each compound concentration was determined, and the 50% growth inhibition concentration GI50 (μmol/L)] was calculated using XLfit. Growth inhibition rate (%)=(Amount of luminescence from wells supplemented with test compound)/(Amount of luminescence from wells supplemented with DMSO)×100"}, "[2]": {"test_system": "Glioma-initiating cell E6R", "assay": "Cell growth test (MTT) on GICR strain E6R", "type": "cell-based", "details": "Homo sapiens, 72 h", "experimental": "GICR strain: Cell growth test was performed using E6R (Stem Cells. 2016 August; 34(8):2016-25.).\nas §2, §3, §4, §1"}, "[3]": {"test_system": "SOX2 in GICs (E16)", "assay": "SOX2 immunostaining, SOX2/DAPI positive rate in GICs (E16)", "type": "cell-based, human", "experimental": "The extranuclear elimination of compound 8-dependent SOX2 is dependent on the extranuclear transport factor, Exportin (also known as CRM1). The cells were cultured for one day in the presence of Compound 8 (10 μM) and a CRM1-specific inhibitor leptomycin B (LMB, 150 nM), and GICs were immunostained with the SOX2 antibody. As a result, the SOX2/DAPI positive rate in GICs (E6) was as follows: Control: 95±2%, supplemented with Compound 8: 7±3%, supplemented with Compound 8+LMB: 87±9%; the SOX2/DAPI positive rate in GICs (E16) was as follows: Control: 72±11%, supplemented with compound 8: 0.5±1%, supplemented with Compound 8+LMB: 81±10%. The addition of LMB suppressed Compound 8-dependent extranuclear elimination of SOX2.\nWhen UDP-GlcNAc was added after the chemical was added to GIC, reduced SOX2 expression in GICs and the cytotoxic activity of Compound 8 on GICs were neutralized (FIGS. 3 and 4). SOX2 K75A in which lysine 75 involved in the binding of CRM1 and SOX2 was substituted with alanine and SOX2 S248A in which the 0-GlcNAcylation target serine 248 was substituted with alanine were prepared, thereby establishing GICs that constitutively express these SOX2 mutants and wild-type SOX2 (SOX2 wt). After treatment with Compound 8, the localization of SOX2 was examined by immunostaining using an anti-FLAG antibody, and the viability of GICs expressing these mutants was examined by MTT assay (FIG. 5). In the presence of Compound 8, SOX2 K75A was present in the nucleus and partially neutralized the cytotoxic activity of Compound 8. SOX2 S248A was not retained in the nucleus by treatment with Compound 8, and no inhibitory effect on cytotoxic activity was observed. […] The SOX2/DAPI positive rate was as follows: GIC (E6): Control: 0%, SOX2 wt: 36±5%, SOX2 K75A: 63±5%, SOX2 S248A: 18±2%; GIC (E16): Control: 0%, SOX2 wt: 22±4%, SOX2 K75A: 58±6%, SOX2 S248A: 15±3%. Error bar: ±SD. Statistical processing is t-test. *P<0.05, **P<0.01, ***P<0.001. GIC was cultured for 2 days with Compound 8 (10 μmol/L) alone or together with UDP-GlcNAc (1 mmol/L), and immunostaining was performed for SOX2 and NESTIN. As a result, the addition of UDP-GlcNAc suppressed Compound 8-dependent extranuclear elimination of SOX2.\nOSMI-1, which is an O-GlcNAc transferase (OGT)-specific inhibitor, suppresses GIC growth and SOX2 expression. (A) GICs were cultured for 3 days in the presence of various concentrations of OSMI-1, and cell growth was examined using MTT assay (FIG. 6). (B) The results of immunostaining for SOX2 and NESTIN using GICs cultured for 2 days in the presence of 20 μmol/L OSMI-1 and calculating the SOX2 positive rate (SOX2/DAPI) are shown below."}, "[4]": {"test_system": "GICs (E6, E16)", "assay": "Quantitative determination of metabolites by LC-MS/MS in GICs", "type": "cell-based, human", "set-up": "amounts of purine metabolites (ATP, GTP, dATP, dGTP): dose or concentration left out as unconfirmed", "details": "24 hours", "experimental": "Compound 8 was added to GICs (E6, E16) at […] and treated for 24 hours. Cells were washed with a 5% mannitol solution, 70% ice-cold methanol was added, and metabolites were extracted. […] In addition, the amount of orotic acid was decreased in E16 cells."}, "[5]": {"test_system": "Glioma-initiating cell E16", "assay": "Cell proliferation test (MTT) on GIC strain E16", "type": "cell-based", "details": "Homo sapiens, 72 h, MTT after 3 days", "experimental": "as §1, §2, §3, §4"}, "[6]": {"test_system": "GIC strains (E6 cell, E16 cell)", "assay": "Immunostaining of differentiated and undifferentiated markers in GIC strains", "type": "cell-based, human", "details": "Compound 8 10 μM, E6 and E16 cells, FIG. 1"}, "[7]": {"details": "after treatment with Compound 8, anti-FLAG immunostaining"}}, "note": "Where two headings read alike, the source gives them in different places."}
{"smiles": "O=C(O)c1cc(C2CC2)cnc1Nc1ccc2c(ccn2-c2ccccc2)c1", "note": "[Compound 8, 5-cyclopropyl-2-((1-phenyl-1H-indole-5-yl)amino)nicotinic acid]", "values": [{"measurement": "GI50", "setting": "[1]; read-out: GI50 (nmol/L) of Glioma-initiating cell E16R", "result": 490, "unit": "nmol/L"}, {"measurement": "GI50", "setting": "[1]; read-out: GI50 class of Glioma-initiating cell E16R", "result": "< 1000", "unit": "nmol/L"}, {"measurement": "GI50", "setting": "[2]; MTT after 3 days, read-out: ER6 GI50", "result": 11.8, "unit": "nM"}, {"measurement": "GI50", "setting": "[2]; class of ER6 GI50, MTT after 3 days, read-out: Evaluation", "result": "< 1000", "unit": "nM"}, {"measurement": "SOX2/DAPI positive rate in GICs (E16)", "setting": "[3]; Compound 8 10 μM, LMB 150 nM where added, cultured one day, control 72±11%", "result": "0.5±1", "unit": "%"}, {"measurement": "SOX2/DAPI positive rate, GIC (E16) expressing SOX2 K75A", "setting": "[3]; [7]", "result": "58±6", "unit": "%"}, {"measurement": "SOX2/DAPI positive rate, GIC (E16) expressing SOX2 S248A", "setting": "[3]; [7]", "result": "15±3", "unit": "%"}, {"measurement": "SOX2/DAPI positive rate, GIC (E16) expressing SOX2 wt", "setting": "[3]; [7]", "result": "22±4", "unit": "%"}, {"measurement": "amounts of pyrimidine metabolites downstream of orotic acid (UMP, UDP, UTP, CMP, CDP, CTP, dCTP, dTTP)", "setting": "[4]; 10 M", "result": "reduced"}, {"measurement": "amounts of purine metabolites (ATP, GTP, dATP, dGTP)", "setting": "[4]", "result": "remained unchanged"}, {"measurement": "GI50", "setting": "[5]; read-out: GI50 (nmol/L) of Glioma-initiating cell E16", "result": 434, "unit": "nmol/L"}, {"measurement": "GI50", "setting": "[5]; read-out: GI50 class of Glioma-initiating cell E16", "result": "< 1000", "unit": "nmol/L"}, {"measurement": "expression of differentiation markers (βIII tubulin, GFAP, GC)", "setting": "[6]", "result": "increased"}, {"measurement": "positive rate of neural stem cell markers SOX2 and NESTIN", "setting": "[6]", "result": "remarkable decrease"}]}
